Our source for the inhibition and IC50 values is ChEMBL document CHEMBL3399985, “Rational design, synthesis and structure-activity relationships of 4-alkoxy- and 4-acyloxy-phenylethylenethiosemicarbazone analogues as novel tyrosinase inhibitors” (Bioorg Med Chem, 2015).

Structures are written as SMILES. The source made the active and inactive calls. The rule behind the calls is not given here.

For the first assay, the target named is T1, Tyrosinase (Agaricus bisporus) (UniProt O42713).
T1 sequence (whole entry): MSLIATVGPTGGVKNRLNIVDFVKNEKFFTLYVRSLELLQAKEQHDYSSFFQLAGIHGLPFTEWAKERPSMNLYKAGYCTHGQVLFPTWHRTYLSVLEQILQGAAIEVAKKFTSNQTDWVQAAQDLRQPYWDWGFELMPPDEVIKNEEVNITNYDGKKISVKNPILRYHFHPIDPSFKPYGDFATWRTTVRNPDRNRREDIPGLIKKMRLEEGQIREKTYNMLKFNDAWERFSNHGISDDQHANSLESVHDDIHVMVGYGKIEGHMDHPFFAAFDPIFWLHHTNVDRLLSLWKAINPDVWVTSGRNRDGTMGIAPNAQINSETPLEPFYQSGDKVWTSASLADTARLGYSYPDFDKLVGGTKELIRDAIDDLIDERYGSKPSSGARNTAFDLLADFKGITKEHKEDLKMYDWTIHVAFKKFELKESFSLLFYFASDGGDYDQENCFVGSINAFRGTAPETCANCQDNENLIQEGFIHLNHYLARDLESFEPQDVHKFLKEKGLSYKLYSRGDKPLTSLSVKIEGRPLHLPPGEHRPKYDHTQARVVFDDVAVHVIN
In words: Competitive inhibition of mushroom tyrosinase using L-DOPA as substrate preincubated at 0.2 to 0.6 uM for 10 mins by Lineweaver-Burk double reciprocal plot method.
Consider `C/C(Cc1ccc(OCc2ccccc2)cc1)=N\NC(N)=S`, for which the inhibition result is “Active”.

In a further assay the target is T1, Tyrosinase (Agaricus bisporus). In words: Reversible inhibition of mushroom tyrosinase using L-DOPA as substrate preincubated at 0.2 to 0.6 uM for 10 mins by spectrophotometry.
Regarding `C/C(Cc1ccc(OCc2ccccc2)cc1)=N\NC(N)=S`, the inhibition result was “Active”.

The target is the same in another assay. In words: Competitive inhibition of mushroom tyrosinase using L-DOPA as substrate preincubated at 0.1 to 0.3 uM for 10 mins by Lineweaver-Burk double reciprocal plot method.
In the case of `C/C(CCc1ccc(OCc2ccccc2)cc1)=N\NC(N)=S`, the inhibition entry was “Active”.

The target in a further assay is T2, Tyrosinase (Agaricus bisporus, UniProt O42713).
T2 sequence (O42713 whole entry): T1 sequence (whole entry)
Description: Inhibition of mushroom tyrosinase using L-DOPA as substrate preincubated for 10 mins by spectrophotometry
As a reminder, the IC50 is the concentration that inhibits the measured activity by half. A lower IC50 goes with inhibition by little substance. Compound `NNC(=S)NN` came in with an IC50 of 178000 nM.

`CCOC(=O)CCCOc1ccc(CC/C(C)=N/NC(N)=S)cc1` displayed an IC50 of 328 nM.

`C/C(CCc1ccc(OCc2ccccc2)cc1)=N\NC(N)=S` registered a 50% inhibitory concentration (IC50) of 217 nM.

In turn, `COc1ccc(C/C(C)=N/NC(=S)NN)cc1` displayed a concentration for half-maximal inhibition (IC50) of 159000 nM. This IC50 is about 730-fold higher than that of the compound before.

`CC(=O)Oc1ccc(CC/C(C)=N/NC(N)=S)cc1`: the IC50 came out at 72 nM.

`COc1ccc(/C(C)=N/NC(=S)NN)cc1` came in with a 50% inhibitory concentration (IC50) of 110000 nM.

In the case of `C/C(CCc1ccc(OCC(=O)O)cc1)=N\NC(N)=S`, the 50% inhibitory concentration (IC50) turned out to be 593 nM.

As to `CCOC(=O)COc1ccc(CC/C(C)=N/NC(N)=S)cc1`, the half-maximal inhibitory concentration (IC50) amounted to 515 nM.

Compound `C/C(CCc1ccc(OCCC(C)C)cc1)=N\NC(N)=S` returned an IC50 of 475 nM. The IC50 values of the last two compounds are within 1.5-fold of each other.

In the case of `CCCOc1ccc(CC/C(C)=N/NC(N)=S)cc1`, the IC50 was 264 nM.

`C/C(CCc1ccc(OCCCC(=O)O)cc1)=N\NC(N)=S` gave a 50% inhibitory concentration (IC50) of 678 nM.

`CCCCCCOc1ccc(CC/C(C)=N/NC(N)=S)cc1` came in with an IC50 of 754 nM. The IC50 values of the last two compounds are within 1.5-fold of each other.

`CCOC(=O)CCCOc1ccc(C/C(C)=N/NC(N)=S)cc1` yielded an IC50 of 478 nM. Against the preceding compound, the IC50 is about 1.6-fold lower.

In turn, `COc1ccc(CC/C(C)=N/NC(=S)NN)cc1` registered an IC50 of 208000 nM.

`C/C(CCc1ccc(OC(=O)c2ccccc2)cc1)=N\NC(N)=S` had a half-maximal inhibitory concentration (IC50) of 156 nM.

`CCOc1ccc(CC/C(C)=N/NC(N)=S)cc1` registered a half-inhibitory concentration (IC50) of 209 nM.

As for `C/C(Cc1ccc(OCc2ccccc2)cc1)=N\NC(N)=S`, the IC50 is 340 nM.

Compound `C/C(CCc1ccc(OCc2ccc(Br)cc2)cc1)=N\NC(N)=S` registered an IC50 of 438 nM.

Take `CCCCOc1ccc(CC/C(C)=N/NC(=S)NN)cc1`: the IC50 worked out at 232000 nM.

Compound `C/C(CCc1ccc(O)cc1)=N\NC(=S)NN` showed a half-maximal inhibitory concentration (IC50) of 126000 nM.

Compound `CCCCOc1ccc(C/C(C)=N/NC(=S)NN)cc1` showed an IC50 of 224000 nM. Against the preceding compound, the IC50 is about 1.8-fold higher.

With `CCCCCCCCOc1ccc(CC/C(C)=N/NC(N)=S)cc1`, the IC50 is 865 nM.

`CCC(CC)Oc1ccc(CC/C(C)=N/NC(N)=S)cc1` displayed an IC50 of 445 nM.

As for `CCCCCOc1ccc(C/C(C)=N/NC(N)=S)cc1`, the half-maximal inhibitory concentration (IC50) amounted to 613 nM.

Turning to `C/C(CCc1ccc(OC(=O)C(C)C)cc1)=N\NC(N)=S`, the IC50 stood at 288 nM.

Take `CCCCOc1ccc(CC/C(C)=N/NC(N)=S)cc1`: half-maximal inhibition (IC50) required 272 nM.

`C/C(CCc1ccc(OCCCc2ccccc2)cc1)=N\NC(N)=S` returned an IC50 of 835 nM.

Compound `CCCCCOc1ccc(CC/C(C)=N/NC(N)=S)cc1` came in with an IC50 of 412 nM.

The compound `COc1ccc(CC/C(C)=N/NC(N)=S)cc1` had an IC50 of 188 nM.

In the case of `C/C(Cc1ccc(O)cc1)=N\NC(N)=S`, inhibition was half-maximal at 2710 nM (IC50).

The target in the next assay is T1, Tyrosinase (Agaricus bisporus). In words: Reversible inhibition of mushroom tyrosinase using L-DOPA as substrate preincubated at 0.1 to 0.3 uM for 10 mins by spectrophotometry.
As to `C/C(CCc1ccc(OCc2ccccc2)cc1)=N\NC(N)=S`, the inhibition entry is “Active”.
